pIC50: −log10 of the molar value.

The subject of assay [1] is Human rhinovirus sp. Description: Antiviral activity against rhinoviral 31 serotype in a plaque inhibition assay using monolayers of M-HeLa cells. Type of assay: functional, organism-based.
Assay [2] relates to Human rhinovirus sp. Put plainly: Antiviral activity against rhinoviral-1B serotype in a plaque inhibition assay using monolayers of M-HeLa cells. In kind it is functional, organism-based.
Assay [3] relates to Human rhinovirus sp. Put plainly: Antiviral activity against rhinoviral 12 serotype in a plaque inhibition assay using monolayers of M-HeLa cells. In kind it is functional, organism-based.
The test system of assay [4] is Human rhinovirus sp. Description: Antiviral activity against rhinoviral 29 serotype in a plaque inhibition assay using monolayers of M-HeLa cells. Type of assay: functional, organism-based.
Assay [5] is described as follows: Percent inhibitory activity at 2.5 uM against rhinoviral 8 serotype in a plaque inhibition assay using monolayers of M-HeLa cells. In kind it is functional, Homo sapiens.
The subject of assay [6] is Human rhinovirus sp. Description: Antiviral activity against rhinoviral-19 serotype in a plaque inhibition assay using monolayers of M-HeLa cells. In kind it is functional, organism-based.
Assay [7] is described as follows: Antiviral activity against rhinoviral 13 serotype in a plaque inhibition assay using monolayers of M-HeLa cells. Type of assay: functional, cell-based. The conditions noted are these: Homo sapiens.
Assay [8] deals with Human rhinovirus sp. Put plainly: Antiviral activity against rhinoviral-18 serotype in a plaque inhibition assay using monolayers of M-HeLa cells. In kind it is functional, organism-based.
Assay [9] deals with Human rhinovirus sp. Put plainly: Antiviral activity against rhinoviral-1A serotype in a plaque inhibition assay using monolayers of M-HeLa cells. In kind it is functional, organism-based.
Assay [10] has as its system Human rhinovirus sp. Description: Percent inhibitory activity at 8 uM against rhinoviral 21 serotype in a plaque inhibition assay using monolayers of M-HeLa cells. Type of assay: functional.
Assay [11] relates to Human rhinovirus sp. Description: Antiviral activity against rhinoviral 15 serotype in a plaque inhibition assay using monolayers of M-HeLa cells. Type of assay: functional, organism-based.
Assay [12] deals with Human rhinovirus sp. Description: Percent inhibitory activity at 8 uM against rhinoviral 5 serotype in a plaque inhibition assay using monolayers of M-HeLa cells. In kind it is functional.
The nature of assay [13]: Percent inhibitory activity at 2.5 uM against rhinoviral 3 serotype in a plaque inhibition assay using monolayers of M-HeLa cells. In kind it is functional, Homo sapiens.
The nature of assay [14]: Percent inhibitory activity at 2.5 uM against rhinoviral 4 serotype in a plaque inhibition assay using monolayers of M-HeLa cells. Type of assay: functional, Homo sapiens.
The nature of assay [15]: Percent inhibitory activity at 5 uM against rhinoviral 16 serotype in a plaque inhibition assay using monolayers of M-HeLa cells. In kind it is functional, Homo sapiens.
Assay [16] relates to Human rhinovirus sp. Description: Antiviral activity against rhinoviral 9 serotype in a plaque inhibition assay using monolayers of M-HeLa cells. Type of assay: functional, organism-based.
Assay [17] deals with Human rhinovirus sp. Description: Antiviral activity against rhinoviral 30 serotype in a plaque inhibition assay using monolayers of M-HeLa cells. Type of assay: functional, organism-based.
The subject of assay [18] is Human rhinovirus sp. Put plainly: Antiviral activity against rhinoviral 14 serotype in a plaque inhibition assay using monolayers of M-HeLa cells. In kind it is functional, organism-based.
For assay [19], the system named is Human rhinovirus sp. Description: Antiviral activity against rhinoviral 2 serotype in a plaque inhibition assay using monolayers of M-HeLa cells. Type of assay: functional, organism-based.
In assay [20] the test system is Human rhinovirus sp. Description: Percent inhibitory activity at 8 uM against rhinoviral 3 serotype in a plaque inhibition assay using monolayers of M-HeLa cells. In kind it is functional.
In assay [21] the test system is Human rhinovirus sp. Put plainly: Percent inhibitory activity at 8 uM against rhinoviral 30 serotype in a plaque inhibition assay using monolayers of M-HeLa cells. Type of assay: functional.
Assay [22] is described as follows: Percent inhibitory activity at 8 uM against rhinoviral 2 serotype in a plaque inhibition assay using monolayers of M-HeLa cells. In kind it is functional, Homo sapiens.
Assay [23] relates to Human rhinovirus sp. Description: Percent inhibitory activity at 8 uM against rhinoviral 31 serotype in a plaque inhibition assay using monolayers of M-HeLa cells. Type of assay: functional.
Assay [24] can be described thus: Antiviral activity against rhinoviral 18 serotype in a plaque inhibition assay using monolayers of M-HeLa cells at 8 uM. In kind it is functional, cell-based. To be noted: Homo sapiens.
In assay [25] the test system is Human rhinovirus sp. Description: Percent inhibitory activity at 8 uM against rhinoviral 19s erotype in a plaque inhibition assay using monolayers of M-HeLa cells. Type of assay: functional.
Assay [26] relates to Human rhinovirus sp. Put plainly: Antiviral activity against rhinoviral 8 serotype in a plaque inhibition assay using monolayers of M-HeLa cells. Type of assay: functional, organism-based.
Assay [27] relates to Human rhinovirus sp. Description: Antiviral activity against rhinoviral 4 serotype in a plaque inhibition assay using monolayers of M-HeLa cells. In kind it is functional, organism-based.
In assay [28] the test system is Human rhinovirus sp. Put plainly: Percent inhibitory activity at 8 uM against rhinoviral 13 serotype in a plaque inhibition assay using monolayers of M-HeLa cells. In kind it is functional.
The subject of assay [29] is Human rhinovirus sp. Put plainly: Antiviral activity against rhinoviral 16 serotype in a plaque inhibition assay using monolayers of M-HeLa cells. Type of assay: functional, organism-based.
Assay [30] concerns Human rhinovirus sp. Description: Percent inhibitory activity at 8 uM against rhinoviral 15 serotype in a plaque inhibition assay using monolayers of M-HeLa cells. In kind it is functional.
The subject of assay [31] is Human rhinovirus sp. Put plainly: Percent inhibitory activity at 8 uM against rhinoviral 4 serotype in a plaque inhibition assay using monolayers of M-HeLa cells. In kind it is functional.
Assay [32] in a line: Percent inhibitory activity at 8 uM against rhinoviral-19 serotype in a plaque inhibition assay using monolayers of M-HeLa cells. Type of assay: functional, Homo sapiens.
A short description of assay [33]: Percent inhibitory activity at 10 uM against rhinoviral 5 serotype in a plaque inhibition assay using monolayers of M-HeLa cells. Type of assay: functional, Homo sapiens.
Assay [34] is described as follows: Percent inhibitory activity at 4 uM against rhinoviral-1A serotype in a plaque inhibition assay using monolayers of M-HeLa cells. In kind it is functional, Homo sapiens.
For assay [35], the system named is Human rhinovirus sp. Put plainly: Antiviral activity against rhinoviral 18 serotype in a plaque inhibition assay using monolayers of M-HeLa cells. Type of assay: functional, organism-based.
The subject of assay [36] is Human rhinovirus sp. Put plainly: Antiviral activity against rhinoviral 19 serotype in a plaque inhibition assay using monolayers of M-HeLa cells. In kind it is functional, organism-based.

One may read the pIC50 as the negative decadic logarithm of the IC50, by convention in mol/L. Low readings indicate a large IC50, high ones a small IC50. As to `Cc1ccc(Cn2cnc3c(N(C)C)nc(C(F)(F)F)nc32)cc1`, the pIC50 in the assay with Human rhinovirus sp. [1] was 5.92; in the assay with Human rhinovirus sp. [2] it was 7.52; in the assay on Human rhinovirus sp. [3], 5.59; in the assay on Human rhinovirus sp. [4] it was 5.38; in the assay with Human rhinovirus sp. [6], 5.17; in assay [7] it was 5.59. Moreover, the pIC50 was 5.74 in the assay on Human rhinovirus sp. [8]; 7.00 in the assay with Human rhinovirus sp. [9]; 6.00 in the assay with Human rhinovirus sp. [11]; 6.46 in the assay with Human rhinovirus sp. [16]; 5.66 in the assay on Human rhinovirus sp. [17]; 5.92 with Human rhinovirus sp. [18]. Also, the pIC50 in the assay on Human rhinovirus sp. [19] is 5.24. In addition, the Inhibition in [5] was 41 µM; in the assay with Human rhinovirus sp. [10] it was 40%; with Human rhinovirus sp. [12], 18%; in assay [13], 43 µM; in [14] it was 41 µM; in assay [15], 12%.
As to `CN(C)c1nc(C(F)(F)F)nc2c1ncn2Cc1ccccc1`, the pIC50 with Human rhinovirus sp. [2] was 7.40; in the assay on Human rhinovirus sp. [3] it was 5.42; with Human rhinovirus sp. [4], 5.49; in assay [24], 5.00; in the assay with Human rhinovirus sp. [9], 5.96; in the assay with Human rhinovirus sp. [26], 5.10. Also, the pIC50 is 5.32 in the assay on Human rhinovirus sp. [11]; 5.06 in the assay with Human rhinovirus sp. [27]; 6.34 in the assay with Human rhinovirus sp. [16]; 6.02 with Human rhinovirus sp. [29]; 5.10 with Human rhinovirus sp. [18]. Besides, the Inhibition with Human rhinovirus sp. [20] turned out to be 20%; in the assay with Human rhinovirus sp. [21], 19%; in [22], 33%; in the assay with Human rhinovirus sp. [23], 37%; in the assay with Human rhinovirus sp. [25], 32%; in the assay on Human rhinovirus sp. [10], 28%. Moreover, the Inhibition in the assay on Human rhinovirus sp. [12] was determined as 33%; in the assay with Human rhinovirus sp. [28], 22%.
Turning to `CN(C)c1nc(C(F)(F)F)nc2c1ncn2Cc1ccc(Cl)c(NC=O)c1`, the pIC50 in the assay on Human rhinovirus sp. [1] is 5.10; in the assay with Human rhinovirus sp. [2], 6.25; in the assay on Human rhinovirus sp. [3], 5.30; in the assay on Human rhinovirus sp. [4], 5.20; in the assay with Human rhinovirus sp. [8], 5.06; in the assay with Human rhinovirus sp. [9] it was 5.10. Besides, the pIC50 with Human rhinovirus sp. [26] was 5.17; in the assay on Human rhinovirus sp. [16], 5.74; in the assay with Human rhinovirus sp. [17], 5.19; in the assay on Human rhinovirus sp. [29], 5.72; in the assay with Human rhinovirus sp. [18], 5.02. Besides, the Inhibition in the assay on Human rhinovirus sp. [20] was 40%; in assay [22], 35%; with Human rhinovirus sp. [10], 20%; in the assay with Human rhinovirus sp. [30], 29%; in the assay with Human rhinovirus sp. [12], 36%; with Human rhinovirus sp. [31] it was 34%. Moreover, the Inhibition in assay [32] is 18%; in the assay on Human rhinovirus sp. [28] it was 43%.
Consider `CN(C)c1nc(C(F)(F)F)nc2c1ncn2Cc1ccc([N+](=O)[O-])cc1`, for which the Inhibition in assay [33] is 32%; with Human rhinovirus sp. [20], 43%; in the assay on Human rhinovirus sp. [21] it was 28%; in the assay on Human rhinovirus sp. [23], 37%; in the assay with Human rhinovirus sp. [10], 28%; in assay [34], 38 µM. The Inhibition in the assay with Human rhinovirus sp. [30] stood at 31%; with Human rhinovirus sp. [28], 13%. Besides, the pIC50 in the assay on Human rhinovirus sp. [2] is 7.15; in the assay with Human rhinovirus sp. [3] it was 5.10; in the assay with Human rhinovirus sp. [4], 5.00; in the assay with Human rhinovirus sp. [26] it was 5.09; in the assay with Human rhinovirus sp. [35], 5.23; with Human rhinovirus sp. [36] it was 5.06. In addition, the pIC50 is 5.39 with Human rhinovirus sp. [27]; 5.25 in the assay with Human rhinovirus sp. [16]; 5.82 with Human rhinovirus sp. [29]; 5.07 with Human rhinovirus sp. [18]; 5.08 in the assay on Human rhinovirus sp. [19].
